Results: publication PMC10940318, “Targeted intracellular delivery of dimeric STINGa by two pHLIP peptides for treatment of solid tumors” (Frontiers in Pharmacology, 2024)

Columns and labels:
[1] = Stopped-flow fluorescence kinetics of membrane insertion and exit; format: physicochemical; settings: POPC liposomes
Description: Fluorescence kinetics was measured using a SFM-300 mixing system (Bio-Logic Science Instruments) in combination with the MOS-450 spectrometer with the temperature control set to 25°C. All samples were degassed before measurement to minimize air bubbles in the samples. pHLIP-mMSA/2pHLIP-dMSA and POPC samples were incubated overnight to reach equilibrium, when most of the agent was associated with liposome lipid bilayers. […] To follow exit of pHLIP-mMSA/2pHLIP-dMSA from the membrane, a low pH solution containing 14 μM pHLIP-mMSA/2pHLIP-dMSA and 2.8 mM POPC was mixed with dibasic phosphate buffer to raise the pH from 4 to 7.4. To monitor the fluorescence intensity changes during pHLIP-mMSA/2pHLIP-dMSA insertion induced by the pH change, the emission signal was observed through a cut-off 320 nm filter at an excitation of 295 nm.

[2] = Blood clearance (PK) by whole blood fluorescence imaging; format: in vivo, Balb/c mice
Description: For biodistribution studies 5 × 10^4 of CT26 cancer cells were injected SQ in 100 µL of growth medium into the right flank of female Balb/c mice and tumors were grown until they reached 150–250 mm^3 in volume. Then a single retro-orbital (RO) injection of 50 μM 100 μL of 2(ICG-pHLIP)-dMSA was performed. Animals were euthanized at 5 min, 1, 4, 24, 48, 72, and 120 h post-injection, blood was collected in K2 EDTA vacutainer blood collection tubes (BD), and necropsy was performed immediately after animals were euthanized. Blood, tumors and major organs (kidney, liver, spleen, pancreas, lung, heart, large and small intestines, bone, muscle, brain) were collected, and imaged ex vivo immediately after necropsy. Blood (200 µL) was imaged in 96-well plates with black bottom and walls.
The in vivo and ex vivo bright field and near-infrared fluorescent imaging employed a Stryker 1588 AIM endoscopic system with L10 AIM Light Source (808 nm excitation and collection of light in the range of approximately of 815–850 nm), and a 1588 AIM Camera using a 10 mm scope. The lens was kept at a fixed distance from the surface of the organs, within an enclosed (light-protected) area. Calibration curves converting laser and gain settings were established by imaging of pHLIP-ICG solution at different concentrations. The ex vivo fluorescence imaging of tissue specimens was performed using three different laser settings and six different gain settings. The digital fluorescence images were split into RGB channels, with the green channel being analyzed using ImageJ program to calculate the average fluorescence intensity. All average intensities were adjusted based on their capture settings and using calibration curves to present fluorescence intensities corresponding to the unified (the same) settings.

## ADQDNPWRAYLDLLFPTDTLLLDLLWCG [2pHLIP-dMSA]
[1]; pH drop from pH 7.4 to 4, 25°C, fluorescence ex 295 nm
  time to completion of insertion into the lipid bilayer: ≤ 100 ms
[1]; pH drop from pH 7.4 to 6, compared with pHLIP-mMSA
  kinetics of membrane insertion (in words): more efficient and faster than the insertion of pHLIP-mMSA
[1]; pH rise from pH 4 to 7.4 and from pH 4 to 5.5, compared with pHLIP-mMSA
  exit from the lipid bilayer (in words): slightly slower
[2]; mice, stated in discussion
  circulation in the blood: 1 to 2 days
[2]; single RO injection of 2(ICG-pHLIP)-dMSA 50 µM 100 µL, CT26 tumor-bearing female Balb/c mice, whole blood fluorescence, exponential fit
  blood clearance half-life: > 30 h
